From patent US6914045B2, “Glycopeptide antibiotics” (Wyeth Holdings Corporation, priority 2001, dated 2005)
Values after ≈ are worked out from the molar mass of the structure shown.

How the values were obtained:
[1] = anatomic pathology (histopathology of heart and kidney) in mice; type: in vivo; settings: CD-1 mice, 20 mg/kg intravenously daily for 9 days, necropsy day 10, microscopic histopathology
Protocol: Samples of tissues from necropsied mice were formalin-fixed, paraffin-embedded, sectioned, stained with hematoxylin and eosin, and examined microscopically. Histopathologic findings were recorded. These findings were subjectively graded on a scale corresponding to slight, mild, moderate, marked and severe as compared to untreated controls.

[2] = clinical pathology (serum clinical chemistry) in mice; type: in vivo; settings: CD-1 mice, 20 mg/kg intravenously daily for 9 days, sera day 10
Protocol: 20-day-old CD-1 mice were divided into a vehicle control group (5 mice) and a treatment group (5 mice). Samples of glycopeptide antibiotics were administered at 20 mg/kg intravenously daily for 9 days.

Streptococcus sp. = experiment: in vitro antibacterial evaluation, MIC by broth dilution; type: cell-based; settings: broth dilution, 18 hours at 35° C.
Method in brief: (§1)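 Following National Committee for Clinical Laboratory Standards recommendations (M7-A2), susceptibility was measured by dilution in Muller-Hinton II […]. Bacteria were seeded at 5×10^5 CFU/mL against compound concentrations from 64 down to 0.06 μg/mL.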

Escherichia coli = experiment: as above; type: cell-based
Method in brief: as §1

Staphylococcus sp. = experiment: as above; type: cell-based; settings: broth dilution, 18 hours at 35° C.; for MIC Staphylococcus aureus (GC 1131): strain GC 1131
Method in brief: as §1

Enterococcus sp. = experiment: as above; type: cell-based; settings: broth dilution, 18 hours at 35° C.
Method in brief: as §1

CC(c1ccccc1)C1NC(=O)CNC(=O)C(CO)NC(=O)C(C(O)C2CNC(=N)N2C2OC(CO)C(O)C(O)C2O)NC(=O)C(C(O)C2CNC(=N)N2)NC(=O)C(Cc2ccc(OC3OC(CO)C(OC4OC5COC(c6ccc(C(=O)O)cc6)OC5C(O)C4O)C(O)C3O)cc2)NC1=O (stereo not drawn) [Example 141, Cyclo[glycyl-β-methylphenylalanyl-O-[4-O-[4,6-O-(4-carboxybenzylidene)hexopyranosyl]-hexopyranosyl]tyrosyl-3-(2-iminoimidazolidin-4-yl)seryl-3-(3-hexopyranosyl-2-iminoimidazolidin-4-yl)serylseryl]]
Anatomical Pathology (Day 10), Heart [1]: 0 | Anatomical Pathology (Day 10), Kidney [1]: +++ | Clinical Chemistry (Day 10) % of Control, BUN [2]: +308% | Clinical Chemistry (Day 10) % of Control, Creatinine [2]: +113% | MIC Streptococcus agalactiae (GC 4564) (Streptococcus sp.; Streptococcus agalactiae (GC 4564)): >64 mg/L | MIC Streptococcus pneumoniae (ATCC 6301) (Streptococcus sp.; Streptococcus pneumoniae (ATCC 6301)): >64 mg/L | MIC Streptococcus pneumoniae (GC 1894) (Streptococcus sp.; Streptococcus pneumoniae (GC 1894)): >64 mg/L | MIC Streptococcus pneumoniae (GC 4565) (Streptococcus sp.; Streptococcus pneumoniae (GC 4565)): >64 mg/L | MIC Streptococcus pyogenes (GC 4563) (Streptococcus sp.; Streptococcus pyogenes (GC 4563)): >64 mg/L | MIC Streptococcus pneumoniae (ATCC 6301) (Streptococcus sp.; strain ATCC 6301): >64 mg/L | MIC Streptococcus pneumoniae (GC 1894) (Streptococcus sp.; strain GC 1894): >64 mg/L | MIC Streptococcus pyogenes (GC 4563) (Streptococcus sp.; strain GC 4563): >64 mg/L | MIC Streptococcus agalactiae (GC 4564) (Streptococcus sp.; strain GC 4564): >64 mg/L | MIC Streptococcus pneumoniae (GC 4565) (Streptococcus sp.; strain GC 4565): >64 mg/L | MIC Escherichia coli (ATCC 25922) (Escherichia coli; strain ATCC 25922, 18 hours at 35° C.): >64 mg/L | MIC Escherichia coli (GC 4559) (Escherichia coli; strain GC 4559, 18 hours at 35° C.): >64 mg/L | MIC Escherichia coli (GC 4560) (Escherichia coli; strain GC 4560, 18 hours at 35° C.): >64 mg/L | MIC Staphylococcus aureus (GC 1131) (Staphylococcus sp.; inoculum 5×10^5 CFU/mL): >64 mg/L | MIC Staphylococcus aureus (ATCC 29213) (Staphylococcus sp.; strain ATCC 29213): >64 mg/L | MIC Staphylococcus aureus (GC 1131) (Staphylococcus sp.): >64 mg/L | MIC Staphylococcus aureus (GC 3051) (Staphylococcus sp.; strain GC 3051): >64 mg/L | MIC Staphylococcus aureus (GC 3053) (Staphylococcus sp.; strain GC 3053): >64 mg/L | MIC Staphylococcus aureus (GC 4541) (Staphylococcus sp.; strain GC 4541): >64 mg/L | MIC Staphylococcus aureus (GC 4542) (Staphylococcus sp.; strain GC 4542): >64 mg/L | MIC Staphylococcus aureus-SMITH (GC 4543) (Staphylococcus sp.; strain GC 4543): >64 mg/L | MIC Staphylococcus aureus (GC 4544) (Staphylococcus sp.; strain GC 4544): >64 mg/L | MIC Staphylococcus aureus (GC 4545) (Staphylococcus sp.; strain GC 4545): >64 mg/L | MIC Staphylococcus haemolyticus (GC 4546) (Staphylococcus sp.; strain GC 4546): >64 mg/L | MIC Coagulase Negative Staphylococcus (GC 4547) (Staphylococcus sp.; strain GC 4547): >64 mg/L | MIC Coagulase Negative Staphylococcus (GC 4548) (Staphylococcus sp.; strain GC 4548): >64 mg/L | MIC Coagulase Negative Staphylococcus (GC 4549) (Staphylococcus sp.; strain GC 4549): >64 mg/L | MIC Coagulase Negative Staphylococcus (GC 4551) (Staphylococcus sp.; strain GC 4551): >64 mg/L | MIC Coagulase Negative Staphylococcus (GC 6257) (Staphylococcus sp.; strain GC 6257): >64 mg/L | MIC Staphylococcus aureus-SMITH (GC 4543) (Staphylococcus sp.; strain SMITH GC 4543): >64 mg/L | MIC Enterococcus avium (GC 4558) (Enterococcus sp.; Enterococcus avium (GC 4558)): >64 mg/L | MIC Enterococcus faecalis (ATCC 29212) (Enterococcus sp.; Enterococcus faecalis (ATCC 29212)): >64 mg/L | MIC Enterococcus faecalis (GC 2242) (Enterococcus sp.; Enterococcus faecalis (GC 2242)): >64 mg/L | MIC Enterococcus faecalis (GC 2691) (Enterococcus sp.; Enterococcus faecalis (GC 2691)): >64 mg/L | MIC Enterococcus faecalis (GC 3059) (Enterococcus sp.; Enterococcus faecalis (GC 3059)): >64 mg/L | MIC Enterococcus faecalis (GC 4552) (Enterococcus sp.; Enterococcus faecalis (GC 4552)): >64 mg/L | MIC Enterococcus faecalis (GC 4553) (Enterococcus sp.; Enterococcus faecalis (GC 4553)): >64 mg/L | MIC Enterococcus faecalis (GC 4554) (Enterococcus sp.; Enterococcus faecalis (GC 4554)): >64 mg/L | MIC Enterococcus faecalis (GC 6189) (Enterococcus sp.; Enterococcus faecalis (GC 6189)): >64 mg/L | MIC Enterococcus faecium (GC 2243) (Enterococcus sp.; Enterococcus faecium (GC 2243)): >64 mg/L | MIC Enterococcus faecium (GC 4556) (Enterococcus sp.; Enterococcus faecium (GC 4556)): >64 mg/L | MIC Enterococcus faecium (GC 4557) (Enterococcus sp.; Enterococcus faecium (GC 4557)): 64 mg/L (≈ 44.8 µM) | MIC Enterococcus faecalis (ATCC 29212) (Enterococcus sp.; strain ATCC 29212): >64 mg/L | MIC Enterococcus faecalis (GC 2242) (Enterococcus sp.; strain GC 2242): >64 mg/L | MIC Enterococcus faecium (GC 2243) (Enterococcus sp.; strain GC 2243): >64 mg/L | MIC Enterococcus faecalis (GC 2691) (Enterococcus sp.; strain GC 2691): >64 mg/L | MIC Enterococcus faecalis (GC 3059) (Enterococcus sp.; strain GC 3059): >64 mg/L | MIC Enterococcus faecalis (GC 4552) (Enterococcus sp.; strain GC 4552): >64 mg/L | MIC Enterococcus faecalis (GC 4553) (Enterococcus sp.; strain GC 4553): >64 mg/L | MIC Enterococcus faecalis (GC 4554) (Enterococcus sp.; strain GC 4554): >64 mg/L | MIC Enterococcus faecium (GC 4556) (Enterococcus sp.; strain GC 4556): >64 mg/L | MIC Enterococcus faecium (GC 4557) (Enterococcus sp.; strain GC 4557): 64 mg/L (≈ 44.8 µM) | MIC Enterococcus avium (GC 4558) (Enterococcus sp.; strain GC 4558): >64 mg/L | MIC Enterococcus faecalis (GC 6189) (Enterococcus sp.; strain GC 6189): >64 mg/L
